# From PMC8298375 (Naunyn-Schmiedeberg's Archives of Pharmacology, 2021)
# Like-named read-outs stand apart in the source and are kept apart here.
# How the values were obtained:
# [1] = test system: ICV colchicine-induced dementia rats; experiment: Morris water maze test, ICV colchicine-induced dementia (chronic model); assay type: in vivo, Wistar rats; settings: Mean ± SEM; for Escape latency, 14th day / Escape latency, 21st day: colchicine 15 µg ICV; for Escape latency, Probe day: colchicine model
# Procedure: In the chronic model, the rats were trained for MWM and PAT tasks for the first 4 days followed by intracerebroventricular (i.c.v.) administration of colchicine on day 6. After establishing dementia on day 10 of the colchicine administration, the drug treatment was initiated from day 11 to 24. The effects of different drug treatments on dementia were assessed on days 14 and 21. On these particular days, the swim test was performed 15 min after the administration of different treatments and escape latencies; residence time and peripheral swim time were recorded (Nampoothiri [2017]). The retention trials for PAT on day 17 and 23 were performed on days 17 and 23, 15 min after the administration of the drug.
# On the 6th day, surgery was performed as described (Bokare et al. [2018]). Rat was anesthetized with sodium pentobarbital (45 mg/kg, i.p.) and positioned in stereotaxic apparatus. The head was positioned in a frame, and a midline sagittal incision was made in the scalp. Two holes were drilled through the skull at coordinates (0.8 mm posterior to bregma, 1.8 mm lateral to the sagittal suture, and 3.6 mm beneath the cortical surface) to place the injection cannula. Rats were intracerebroventricularly infused with either artificial cerebrospinal fluid (ACSF; in mM: 147 NaCl, 2.9 KCl, 1.6 MgCl2, 1.7 CaCl2, and 2.2 dextrose) or 15 µg of colchicine in 5 µL ACSF using a Hamilton microsyringe positioned in the injection cannula. To promote back diffusion, the microsyringe was left in place for 2 min following injection. The scalp was then closed with a suture. After surgery, all animals received gentamicin (5 mg/kg, i.p.) to prevent sepsis. Special care was taken during the postoperative period to provide food and water inside the cage of the rat. In sham-operated rats, surgery was identical except for injection of the solution.
# A modified Morris water maze test was used (Nampoothiri [2017]). The pool was positioned in the middle of a dimly lit testing room with distant visual clues that could be used by rats for spatial orientation. The maze consisted of a circular water pool (140 × 45 cm) divided into four equally sized quadrants (NE, SE, SW, and NW) by two imaginary diagonal lines running across the center of the pool. The pool was filled with water maintained at a temperature of 23 ± 2 °C. In the NE quadrant (target quadrant) equidistant from the center and edge of the pool, a platform of 25-cm height and 10-cm diameter was invisibly placed submerged 1 cm below the water surface. Rats were gently placed in each quadrant facing the wall and trained to locate the hidden black platform, and the trial was terminated when the rat reached the platform or after 60 s. Accordingly, rats were subjected to one session of four trials per day for four consecutive days. All rats were left on the platform for 30 s and then removed and towel dried. Inter-trial interval was kept a constant 180 s throughout the study. In the probe trial, platform was removed, and rats were allowed to swim for a 60-s trial period. Data was collected in the form of escape latencies to find the platform; percent of time spent over the target quadrant.
# AChE [2] = assay type: in vivo, rat; settings: scopolamine model; for % AChE Inhibition: plasma
# Procedure: Samples were then centrifuged at 10,000 rpm for 5 min, and plasma was stored at − 70 °C until analysis.
# (§1) Thiocholine, which was produced due to the hydrolysis of acetylthiocholine (ACTI) by AChE, was estimated by making it react with 5, 5′-dithiobis-(2-nitrobenzoic acid) (DTNB). The chemical, 5-thio-2-nitrobenzoic acid (yellow color complex), which was released due to reaction was estimated using a UV spectrophotometer in the range of 400 to 420 nm with maximal absorption at 412 nm. One hundred microliter of blank rat plasma was taken in the polypropylene vials. To this, 2.8 mL of phosphate buffer (0.01 M, pH 8) and 100 µL of DTNB reagents were added and mixed well. Then, 20 µL of ACTI (26.01 mg/mL of Milli-Q water) was added to the contents of the cuvette to initiate the enzyme reaction. The reaction kinetics was monitored at different time intervals (0, 1, 2, 3, 4 min), and absorbance was noted. 2.8 mL buffer (0.01 M, pH 8.0) and 100 µL DTNB reagent served as blank. Concentrations in the range of 0.03–30 mM were prepared using methanol as a diluent. […] Substrate concentration and reaction time were optimized such that sufficient concentration of ACTI is available to bind with the enzyme to initiate the reaction and also it should not saturate the enzyme. In this study, varying concentrations (100–1000 µM) of ACTI were prepared, and reaction kinetics were observed. In general, the maximum time should be either 2–4 min or even less, because the enzyme might undergo degradation. In the present study, up to 4 min of reaction kinetics (changing the optical density or absorbance) was measured. One unit of AChE activity is defined as the number of µmol of acetylthiocholine iodide hydrolyzed per minute. The specific activity of AChE is expressed in moles/min/mg of protein (Kaur et al. [2015]): AChEActivity=(abs.permin×1000×volumeofenzyme)/(13600×TRM)AChEActivity=abovevalue×1000(nanomolar/min/mL)
# (§2) where 13,600 = molar extinction coefficient of DTNB: 1000-molar conversion factor: (TRM) total reaction mixture 3 mL: volume of enzyme (0.1 mL).
# AChE [3] = assay type: in vivo, rat; settings: colchicine model
# Procedure: as §1, §2
compound,measurement,setting,value
"CCN(C)C(=O)Oc1cccc([C@H](C)N(C)C)c1 [ORSM, rivastigmine]","Escape latency, 14th day",[1]; listed as COL + ORSM,5.89 ± 0.7027 s
same,"Escape latency, 21st day",[1]; listed as COL + ORSM,5.28 ± 0.3809 c s
same,"Escape latency, Probe day",[1]; listed as COL + ORSM,2.83 ± 0.3181 s
same,"peak AChE inhibition (Emax, maximum inhibition) in plasma",AChE [2],71.11%
same,time of peak AChE inhibition in plasma,AChE [2],60 min
same,% AChE Inhibition,"AChE [2]; 0 min, listed as SCP + ORSM",0.00 ± 0.0543%
same,% AChE Inhibition,"AChE [2]; 5 min, listed as SCP + ORSM",26.67 ± 0.1358%
same,% AChE Inhibition,"AChE [2]; 10 min, listed as SCP + ORSM",49.99 ± 0.1026%
same,% AChE Inhibition,"AChE [2]; 15 min, listed as SCP + ORSM","62.03 ± 0.0877 a,b %"
same,% AChE Inhibition,"AChE [2]; 20 min, listed as SCP + ORSM",66.09 ± 0.0921%
same,% AChE Inhibition,"AChE [2]; 30 min, listed as SCP + ORSM",64.89 ± 0.0895%
same,% AChE Inhibition,"AChE [2]; 45 min, listed as SCP + ORSM",70.42 ± 0.0577%
same,% AChE Inhibition,"AChE [2]; 60 min, listed as SCP + ORSM",71.11 ± 0.0438%
same,% AChE Inhibition,"AChE [2]; 90 min, listed as SCP + ORSM",68.18 ± 0.0298%
same,% AChE Inhibition,"AChE [2]; 120 min, listed as SCP + ORSM",64.36 ± 0.0262%
same,% AChE Inhibition,"AChE [2]; 180 min, listed as SCP + ORSM",48.89 ± 0.0378%
same,% AChE Inhibition,AChE [2]; 240 min,37.05 ± 0.0184%
same,peak AChE inhibition in rat plasma,AChE [3],69.56%
same,time of peak AChE inhibition in rat plasma,AChE [3],45 min
same,% AChE Inhibition in rat plasma,"AChE [3]; 0 min, listed as COL + ORSM",0.00 ± 0.0811%
same,% AChE Inhibition in rat plasma,"AChE [3]; 5 min, listed as COL + ORSM",61.96 ± 0.0469%
same,% AChE Inhibition in rat plasma,"AChE [3]; 10 min, listed as COL + ORSM",66.76 ± 0.0195%
same,% AChE Inhibition in rat plasma,AChE [3]; 15 min,65.00 ± 0.0292%
same,% AChE Inhibition in rat plasma,"AChE [3]; 20 min, listed as COL + ORSM",66.57 ± 0.0344%
same,% AChE Inhibition in rat plasma,"AChE [3]; 30 min, listed as COL + ORSM",66.82 ± 0.0101%
same,% AChE Inhibition in rat plasma,"AChE [3]; 60 min, listed as COL + ORSM",67.53 ± 0.0096%
same,% AChE Inhibition in rat plasma,"AChE [3]; 90 min, listed as COL + ORSM",61.88 ± 0.0149%
same,% AChE Inhibition in rat plasma,"AChE [3]; 120 min, listed as COL + ORSM",60.64 ± 0.0186%
same,% AChE Inhibition in rat plasma,"AChE [3]; 180 min, listed as COL + ORSM",47.43 ± 0.0393%
"CCN(C)C(=O)Oc1cccc([C@H](C)N(C)C)c1 [INRSM, rivastigmine]","Escape latency, 14th day",[1]; listed as COL + INRSM,5.28 ± 0.7425 s
same,"Escape latency, 21st day",[1]; listed as COL + INRSM,4.67 ± 0.3849 c s
same,"Escape latency, Probe day",[1]; listed as COL + INRSM,3.28 ± 0.5800 s
same,"peak AChE inhibition (Emax, maximum inhibition) in plasma",AChE [2],71.95%
same,time of peak AChE inhibition in plasma,AChE [2],10 min
same,% AChE Inhibition,"AChE [2]; 0 min, listed as SCP + INRSM",0.00 ± 0.0294%
same,% AChE Inhibition,"AChE [2]; 5 min, listed as SCP + INRSM",64.46 ± 0.1016%
same,% AChE Inhibition,"AChE [2]; 10 min, listed as SCP + INRSM",71.95 ± 0.0398%
same,% AChE Inhibition,"AChE [2]; 15 min, listed as SCP + INRSM","71.82 ± 0.0577 a,b,c %"
same,% AChE Inhibition,"AChE [2]; 20 min, listed as SCP + INRSM",62.84 ± 0.0565%
same,% AChE Inhibition,"AChE [2]; 30 min, listed as SCP + INRSM",63.67 ± 0.0441%
same,% AChE Inhibition,"AChE [2]; 45 min, listed as SCP + INRSM",59.44 ± 0.0384%
same,% AChE Inhibition,"AChE [2]; 60 min, listed as SCP + INRSM",57.57 ± 0.0314%
same,% AChE Inhibition,"AChE [2]; 90 min, listed as SCP + INRSM",56.2 ± 0.317%
same,% AChE Inhibition,"AChE [2]; 120 min, listed as SCP + INRSM",51.35 ± 0.0329%
same,% AChE Inhibition,"AChE [2]; 180 min, listed as SCP + INRSM",49.26 ± 0.0264%
same,peak AChE inhibition in rat plasma,AChE [3],76.75%
same,time of peak AChE inhibition in rat plasma,AChE [3],15 min
same,% AChE Inhibition in rat plasma,"AChE [3]; 0 min, listed as COL + INRSM",0.00 ± 0.0608%
same,% AChE Inhibition in rat plasma,"AChE [3]; 5 min, listed as COL + INRSM",75.74 ± 0.0358%
same,% AChE Inhibition in rat plasma,"AChE [3]; 10 min, listed as COL + INRSM",70.41 ± 0.0540%
same,% AChE Inhibition in rat plasma,"AChE [3]; 20 min, listed as COL + INRSM",73.66 ± 0.0482%
same,% AChE Inhibition in rat plasma,"AChE [3]; 30 min, listed as COL + INRSM",67.33 ± 0.0474%
same,% AChE Inhibition in rat plasma,AChE [3]; 45 min,64.43 ± 0.0388%
same,% AChE Inhibition in rat plasma,"AChE [3]; 90 min, listed as COL + INRSM",55.83 ± 0.0401%
same,% AChE Inhibition in rat plasma,"AChE [3]; 120 min, listed as COL + INRSM",47.15 ± 0.0392%
same,% AChE Inhibition in rat plasma,"AChE [3]; 180 min, listed as COL + INRSM",41.37 ± 0.0410%
